Source: US20240335383A1, “NANOPARTICULATE FORMULATION” (NewImmune II, LLC, priority 2021, published 2024)
Where two headings read alike, the source gives them in different places.

What was measured:
[1] = parameters: species or system human
Description: The efficacy of the presently disclosed compositions and nanoparticles allows for the administration of relatively low doses.

[2] = injected subcutaneously into patients; cited from earlier work
[3] = mice, dermal exposure; cited from earlier work
[4] = rats, oral, repeated dose up to 6 months; cited from earlier work
[5] = mice, rats, and monkeys; adverse effects limited to the central nervous system; cited from earlier work
[6] = rabbits, doses of 2000 and 5000 mg/kg under occlusion; cited from earlier work
[7] = rats, single subcutaneous dose; cited from earlier work
[8] = EMA toxicology review of Aldara; cited from earlier work
[9] = monkeys, oral, repeated dose up to 6 months; cited from earlier work
[10] = test system: mesothelioma, renal cell carcinoma and 4T1 breast cancer; conditions: mouse models, cited from earlier work
[11] = 30 mg subcutaneous dose, healthy human volunteers; cited from earlier work
[12] = test system: T effector memory cells; conditions: Fiorenza et al, 2012; cited from earlier work
[13] = Britton-Robinson buffer, FIG. 1
[14] = pregnant female rabbits, intravenous, gestational Days 6-18; cited from earlier work
[15] = imiquimod; cited from earlier work
[16] = test system: IL-2 stimulated B cells; conditions: Glaum et al, 2009; cited from earlier work

Compound: 2-hydroxypropyl-β-cyclodextrin [HP-β-CD]
- Safety Factor (excipient dose from approved drug vs excipient dose from NP) [1]: 11-fold

Compound: CC(C)Cn1cnc2c(N)nc3ccccc3c21 [imiquimod, 1-(2-methylpropyl)imidazo[4,5-c]quinolin-4-amine]
- systemic exposure [2]: minimal systemic exposure
- carcinogenicity: incidence of tumors or non-neoplastic lesions [3]: no increase in the incidence of tumors or non-neoplastic lesions
- no observed adverse effect level (NOAEL) [4]: 3 mg/kg
- single dose toxicity [5]: high degree of safety
- dermal toxicity [6]: no deaths and no signs of toxicity other than mild transient erythema at the application site
- subcutaneous lethal dose [7]: 20 mg/kg
- effect on fertility [8]: did not affect fertility
- teratogenicity and genotoxicity [8]: neither teratogenic nor genotoxic
- no observed adverse effect level (NOAEL) [9]: 3 mg/kg
- overt signs of toxicity (such as weight loss and ruffled fur) ([10]; 50 μL injections of 50 μg/mL imiquimod): not associated with overt signs of toxicity
- increase in survival time at maximum inhibition of tumor growth ([10]; intratumoral, 50 μL injections of 50 μg/mL imiquimod (p<0.05)): > 50%
- growth of tumor ([10]; only locally (intratumoral) delivered): consistently and significantly retarded the growth of tumor
- tolerability of subcutaneous dose [11]: well tolerated
- cytotoxic activity of T effector memory cells [12]: enhances the cytotoxic activity
- pH of maximum solubility in aqueous solution [13]: ≤ 2
- aqueous solubility above pH 6 ([13]; above pH 6): sparingly soluble
- dose with no treatment related effects on embryofetal toxicity or teratogenicity [14]: 2 mg/kg/day
- in vivo half-life [15]: approximately 3 hours

Compound: CCOCc1nc2c(N)nc3ccccc3c2n1CC(C)(C)O [resiquimod]
- IgM and IgG production by IL-2 stimulated B cells [16]: synergistically enhance IgM and IgG production

Compound: polyethylene glycol 4000 [PEG 4000]
- Safety Factor (excipient dose from approved drug vs excipient dose from NP) [1]: 2-fold
